Calls of active or inactive are those of the source. The rule behind the calls is not given here.

Experimental findings from ChEMBL document CHEMBL3621144, “Small-Molecule Allosteric Modulators of the Protein Kinase PDK1 from Structure-Based Docking” (J Med Chem, 2015) are described below.

Data set [1] has as its target T1, 3-phosphoinositide-dependent protein kinase 1 (Homo sapiens, UniProt O15530).
T1 sequence (O15530 whole entry): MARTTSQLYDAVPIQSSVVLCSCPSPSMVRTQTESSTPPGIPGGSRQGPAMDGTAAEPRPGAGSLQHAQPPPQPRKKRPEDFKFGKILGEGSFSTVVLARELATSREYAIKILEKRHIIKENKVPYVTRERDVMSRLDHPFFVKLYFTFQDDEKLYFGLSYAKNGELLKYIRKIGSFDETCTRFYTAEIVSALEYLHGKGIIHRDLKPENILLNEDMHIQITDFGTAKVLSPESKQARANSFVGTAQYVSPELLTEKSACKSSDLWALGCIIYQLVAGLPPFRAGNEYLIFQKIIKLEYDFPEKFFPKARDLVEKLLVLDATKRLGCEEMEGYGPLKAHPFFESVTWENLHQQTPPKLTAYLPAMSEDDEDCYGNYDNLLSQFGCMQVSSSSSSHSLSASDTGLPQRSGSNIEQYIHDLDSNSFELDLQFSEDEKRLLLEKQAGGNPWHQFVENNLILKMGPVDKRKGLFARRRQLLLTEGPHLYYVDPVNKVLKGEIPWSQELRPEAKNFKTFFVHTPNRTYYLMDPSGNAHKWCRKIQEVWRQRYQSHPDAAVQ
Briefly: Displacement of PIFtide from human PDK1 PIF pocket after 1 hr by fluorescence polarization assay.

The target in data set [2] is Cruzipain (Trypanosoma cruzi) (UniProt P25779). Briefly: Inhibition of Trypanosoma cruzi Cruzain using Z-FR-AMC as substrate preincubated for 5 mins followed by substrate addition measured for 5 mins by spectrofluorimetric analysis.
Cruzipain (Trypanosoma cruzi), sequence (P25779 123-467 limits assumed): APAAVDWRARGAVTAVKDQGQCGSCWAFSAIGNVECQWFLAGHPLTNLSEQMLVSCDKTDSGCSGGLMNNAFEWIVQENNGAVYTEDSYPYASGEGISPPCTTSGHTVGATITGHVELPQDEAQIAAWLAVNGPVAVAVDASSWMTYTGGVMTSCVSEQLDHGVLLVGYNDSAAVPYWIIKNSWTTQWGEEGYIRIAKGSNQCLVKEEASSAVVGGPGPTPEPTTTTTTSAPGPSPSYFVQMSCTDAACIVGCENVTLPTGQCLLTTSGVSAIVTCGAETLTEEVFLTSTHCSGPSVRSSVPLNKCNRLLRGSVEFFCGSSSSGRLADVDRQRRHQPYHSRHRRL
Data set [3] can be described thus: Induction of colloidal aggregates formation in Tris/NaCl/Pluronic F-68 buffer at 100 uM by dynamic light scattering method. The class given is physicochemical.
Data set [4] in a line: Induction of colloidal aggregates formation in Tris/NaCl/MgCl2/CHAPS/beta-mercaptoethanol buffer at 200 uM by dynamic light scattering method. The class given is physicochemical.
A short description of data set [5]: Induction of colloidal aggregates formation in Tris/NaCl/Pluronic F-68 buffer at 300 uM by dynamic light scattering method. The class given is physicochemical.
The target of data set [6] is T1, 3-phosphoinositide-dependent protein kinase 1. Briefly: Activation of human PDK1 catalytic activity using T308tide as substrate after 1 hr by phosphor imager analysis in presence of [gamma-32P]-ATP relative to control.

In turn, `C[C@@H](CN[C@H](c1ccccc1)P(=O)(O)O)c1ccccc1` displayed a Kd in data set [1] of 150 µM.

For the compound `Cc1ccccc1OCCSc1nc2ccccc2n1CCC(=O)O`, binding in data set [1] was put at a Kd of 74 µM. Still for that read-out and setting: under `C[C@H](CN[C@H](c1ccc(F)cc1)P(=O)(O)O)c1ccccc1` stands > 200 µM. Take `O=C(O)C/C(=C/c1cccc(C(F)(F)F)c1)c1nc2ccccc2o1`: the Kd in data set [1] was > 200 µM.

Consider `O=C(O)Cn1c(SCc2ccccc2)nc2ccccc21`, for which the Kd in data set [1] was > 200 µM.

Compound `C[C@@H](CN[C@H](c1ccc(F)c(F)c1)P(=O)(O)O)c1ccccc1` yielded a Kd in data set [1] of 83 µM. In data set [1], `O=C(O)CSc1nc2ccccc2n1CCOc1ccccc1` had a Kd of 120 µM. On the same count and under the same terms, as for `O=C(O)Cn1c(SCc2cccc3ccccc23)nc2ccccc21`, the figure is 120 µM; as for `Cc1ccccc1OCCSc1nc2ccccc2n1CC(=O)O`, 50 µM. Take `Cc1ccc(OCCSc2nc3ccccc3n2CC(=O)O)c(C)c1`: the inhibition result in data set [2] is “inactive”. Further, the Activity entry in data set [3], in data set [4] and in data set [5] was “Not Active” in each case. Further, the Kd in data set [1] was 39.1 µM. In addition, in data set [6], the EC50 is 40 µM. `COc1ccccc1OCCSc1nc2ccccc2n1CC(=O)O`: the equilibrium dissociation constant (Kd) in data set [1] is > 200 µM. Same read-out and setting: as for `O=C(O)Cn1c(SCCOc2ccccc2F)nc2ccccc21`, the figure is > 200 µM; as for `Cc1cccc(OCCn2c(SCC(=O)O)nc3ccccc32)c1`, 75 µM; as for `O=C(O)Cn1c(SCCOc2ccccc2)nc2ccccc21`, > 200 µM.

On to `Cc1cccc(OCCSc2nc3ccccc3n2CC(=O)O)c1C`, for which the Kd in data set [1] was 110 µM.

Take `O=P(O)(O)[C@H](NC[C@@H]1CCCc2ccccc21)c1ccc(F)cc1`: in data set [2], the inhibition entry was “inactive”. In data set [1], the Kd turned out to be 39.4 µM. Moreover, the Activity entry in data set [4] and in data set [5] was “Not Active” in each case. For the same compound, the EC50 in data set [6] was found to be 50 µM.

Turning to `O=P(O)(O)[C@H](NCCc1ccc(F)cc1)c1ccc(F)cc1`, in data set [1], the Kd was > 200 µM.
